Where two headings read alike, the source gives them in different places.
Key:
[1] = tested on: TNFα; test: cells; type: cell-based, human; conditions: LPS-stimulated human monocytes, read-out: EC50 TNF
Method: IRAK4 Monocyte TNFα Cell Based Assay Procedure:
The cell suspension was then plated at a density of 5,000 cells/well onto black 384 well Greiner clear bottom plates. Plates were pre-spotted with test compounds and serially diluted in DMSO where 200 nL/well were delivered using the Echo 550 acoustic liquid dispenser (Labcyte®) for a final DMSO concentration of 0.5%. Plated cells were treated with compound for 1 hour at 37° C. Cells were then stimulated with 50 pg/ml of LPS (Sigma) excluding outside columns of plate used for unstimulated cell control wells. Cells were incubated for an additional 4 hours at 37° C. Cells were then spun out of the media and 5 μl of sample were taken and analyzed for total TNFα content using the TR-FRET Human TNFα detection system (CisBio). This system utilizes two labeled antibodies (cryptate and XL665) that bind to two different epitopes of the TNFα molecule and produce FRET signal proportional to the concentration of TNFα in the sample. Detection antibodies are mixed 50:50 and 5 μL were dispensed into each well. Plates were covered with clear seals and incubated at room temp overnight. […] Percent of control was calculated as follows: % Control=100×(RatioSample−Ratio0% stimulation)/(Ratio100% Stimulation−Ratio0% Stimulation) where unstimulated cells (0% stimulation) were the negative control and stimulated cells (100% stimulation) were used as the positive control.

[2] = molecular target: IRAK4 enzyme (Homo sapiens (Human), UniProt Q9NWZ3); test: biochemical; type: biochemical; conditions: IRAK4 enzyme, 500 μM ATP
[3] = Homo sapiens, Monocyte, TNFα content
[4] = Homo sapiens, Monocyte, TNFα by TR-FRET

Sequence of IRAK4 enzyme (Q9NWZ3 whole entry): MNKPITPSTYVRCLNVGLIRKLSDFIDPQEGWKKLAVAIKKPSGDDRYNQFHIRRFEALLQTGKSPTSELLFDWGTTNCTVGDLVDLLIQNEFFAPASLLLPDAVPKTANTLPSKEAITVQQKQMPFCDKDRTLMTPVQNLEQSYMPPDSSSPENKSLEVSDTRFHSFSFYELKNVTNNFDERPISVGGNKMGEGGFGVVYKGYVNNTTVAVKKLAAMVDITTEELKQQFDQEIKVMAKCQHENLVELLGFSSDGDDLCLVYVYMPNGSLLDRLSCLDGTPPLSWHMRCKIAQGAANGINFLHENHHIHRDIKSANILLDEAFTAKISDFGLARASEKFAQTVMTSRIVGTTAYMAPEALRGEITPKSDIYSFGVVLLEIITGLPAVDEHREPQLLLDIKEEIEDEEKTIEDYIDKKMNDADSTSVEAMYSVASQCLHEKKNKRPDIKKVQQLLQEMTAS

| Structure (SMILES) | EC50 [1, 3] [nM] | IC50 ([2]; TR-FRET) [nM] | IC50 ([2]; TR-FRET (HTRF)) [nM] | EC50 [1, 4] [nM] | EC50 ([1]; TNFα content) [nM] |
| --- | --- | --- | --- | --- | --- |
| CC(C)Nc1cc(-c2ccc3cc(C#N)cnn23)ncc1C(=O)N[C@H]1CC[C@H](C(C)(C)O)CC1 [Example 3, 6-(3-cyanopyrrolo[1,2-b]pyridazin-7-yl)-N-((1r,4r)-4-(2-hydroxypropan-2-yl)cyclohexyl)-4-(isopropylamino)nicotinamide] | 62 | < 1 | – | – | – |
| CC(C)(O)[C@H](F)CNC(=O)c1cnc(-c2ccc3cc(C#N)cnn23)cc1Nc1ccc(-n2cncn2)cc1 [Example 762, (R)-4-((4-(1H-1,2,4-triazol-1-yl)phenyl)amino)-6-(3-cyanopyrrolo[1,2-b]pyridazin-7-yl)-N-(2-fluoro-3-hydroxy-3-methylbutyl)nicotinamide] | 7 | – | < 1 | – | – |
| CNC(=O)c1ccc(Nc2cc(-c3ccc4cc(C#N)cnn34)ncc2C(=O)NC[C@@H](F)C(C)(C)O)cn1 [Example 579, (R)-5-((2-(3-cyano-pyrrolo[1,2-b]pyridazin-7-yl)-5-((2-fluoro-3-hydroxy-3-methylbutyl)carbamoyl)pyridin-4-yl)amino)-N-methylpicolinamide] | 75 | – | < 1 | – | – |
| CC(C)(O)[C@H](F)CNC(=O)c1cnc(-c2ccc3cc(C#N)cnn23)cc1Nc1ccc(Cl)cn1 [Example 586, (R)-4-((5-chloropyridin-2-yl)amino)-6-(3-cyano-pyrrolo[1,2-b]pyridazin-7-yl)-N-(2-fluoro-3-hydroxy-3-methylbutyl) nicotinamide] | 118 | – | 1 | – | – |
| CC(C)(O)[C@H](F)CNC(=O)c1cnc(-c2ccc3cc(C#N)cnn23)cc1Nc1nc(-c2ccccc2)cs1 [Example 363, (R)-6-(3-cyanopyrrolo[1,2-b]pyridazin-7-yl)-N-(2-fluoro-3-hydroxy-3-methylbutyl)-4-((4-phenyl-thiazol-2-yl)amino) nicotinamide] | 328 | 5 | – | – | – |
| CC(C)(O)[C@H](F)CNC(=O)c1cnc(-c2ccc3cc(C#N)cnn23)cc1N[C@H]1CC[C@H](CN)CC1 [Example 558, 4-(((1r,4R)-4-(amino-methyl)cyclohexyl)amino)-6-(3-cyano-pyrrolo[1,2-b]pyridazin-7-yl)-N-((R)-2-fluoro-3-hydroxy-3-methylbutyl) nicotinamide] | 190 | – | < 1 | – | – |
| CC(C)Nc1cc(-c2ccc3cc(C#N)cnn23)ncc1C(=O)Nc1cncc(N)c1 [Example 490] | 220 | – | 7 | – | – |
| CC(C)(O)[C@H](F)CNC(=O)c1cnc(-c2ccc3cc(C#N)cnn23)cc1N[C@H]1C[C@H](CNC(=O)C(F)(F)F)C1 [Example 542, 6-(3-cyanopyrrolo[1,2-b]pyridazin-7-yl)-N—((R)-2-fluoro-3-hydroxy-3-methylbutyl)-4-(((1r,3R)-3-((2,2,2-trifluoroacetamido)methyl)cyclobutyl)amino)nicotinamide] | 27 | – | < 1 | – | – |
| CC(C)(O)[C@H](F)CNC(=O)c1cnc(-c2ccc3cc(C#N)cnn23)cc1Nc1ccn(Cc2ccccc2)n1 [Example 370, (R)-4-((1-benzyl-1H-pyrazol-3-yl)amino)-6-(3-cyanopyrrolo[1,2-b]pyridazin-7-yl)-N-(2-fluoro-3-hydroxy-3-methylbutyl)nicotinamide] | 10 | 1 | – | – | – |
| Cn1cnc2cc(Nc3cc(-c4ccc5cc(C#N)cnn45)ncc3C(=O)NC[C@@H](F)C(C)(C)O)cnc21 [Example 782, (R)-6-(3-cyanopyrrolo[1,2-b]pyridazin-7-yl)-N-(2-fluoro-3-hydroxy-3-methylbutyl)-4-((3-methyl-3H-imidazo[4,5-b]pyridin-6-yl)amino)nicotinamide] | 29 | – | < 1 | – | – |
| CNC(=O)O[C@H]1C[C@H](Nc2cc(-c3ccc4cc(C#N)cnn34)ncc2C(=O)NC[C@@H](F)C(C)(C)O)C1 [Example 162, (1R,3r)-3-((2-(3-cyano-pyrrolo[1,2-b]pyridazin-7-yl)-5-(((R)-2-fluoro-3-hydroxy-3-methylbutyl)carbamoyl)pyridin-4-yl)amino)cyclobutyl methylcarbamate] | > 10000 | 376 | – | – | – |
| CC(C)OC(=O)NC[C@H]1C[C@H](Nc2cc(-c3ccc4cc(C#N)cnn34)ncc2C(=O)NC[C@@H](F)C(C)(C)O)C1 [Example 539, isopropyl (((1R,3r)-3-((2-(3-cyanopyrrolo[1,2-b]pyridazin-7-yl)-5-(((R)-2-fluoro-3-hydroxy-3-methylbutyl)carbamoyl)pyridin-4-yl)amino)cyclo-butyl)methyl)carbamate] | 12 | – | < 1 | – | – |
| N#Cc1cnn2c(-c3cc(NC45CCC(O)(CC4)CC5)c(C(=O)NCCC(=O)N4CC(F)(F)C4)cn3)ccc2c1 [Example 805, 6-(3-cyanopyrrolo[1,2-b]pyridazin-7-yl)-N-(3-(3,3-difluoroazetidin-1-yl)-3-oxopropyl)-4-((4-hydroxybicyclo[2.2.2]octan-1-yl)amino) nicotinamide] | – | < 1 | – | 129 | – |
| CC(C)(O)[C@H](F)CNC(=O)c1cnc(-c2ccc3cc(C#N)cnn23)cc1Nc1cnc(N2CCOCC2)nc1 [Example 671, (R)-6-(3-cyanopyrrolo[1,2-b]pyridazin-7-yl)-N-(2-fluoro-3-hydroxy-3-methylbutyl)-4-((2-morpholinopyrimidin-5-yl)amino)nicotinamide] | 22 | – | < 1 | – | – |
| CNC(=O)c1ccc(Nc2cc(-c3ccc4cc(C#N)cnn34)ncc2C(=O)NC[C@@H](F)C(C)(C)O)cc1 [Example 350, (R)-6-(3-cyanopyrrolo[1,2-b]pyridazin-7-yl)-N-(2-fluoro-3-hydroxy-3-methylbutyl)-4-((4-(methylcarbamoyl)phenyl)amino)nicotinamide] | 12 | < 1 | – | – | – |
| CC(C)(O)[C@H](F)CNC(=O)c1cnc(-c2ccc3cc(C#N)cnn23)cc1NC12CCC(N3CCC3=O)(CC1)CC2 [Example 405, 6-(3-cyanopyrrolo[1,2-b]pyridazin-7-yl)-N-((R)-2-fluoro-3-hydroxy-3-methylbutyl)-4-((4-(2-oxoazetidin-1-yl)bicyclo[2.2.2]octan-1-yl)amino)nicotinamide] | 12 | – | 1 | – | – |
| N#Cc1cnn2c(-c3cc(NC45CCC(O)(CC4)CC5)c(C(=O)NCC(=O)N4CC[C@@H](O)C4)cn3)ccc2c1 [Example 953, (R)-6-(3-cyanopyrrolo[1,2-b]pyridazin-7-yl)-4-((4-hydroxybicyclo[2.2.2]octan-1-yl)amino)-N-(2-(3-hydroxypyrrolidin-1-yl)-2-oxoethyl) nicotinamide] | – | < 1 | – | 240 | – |
| CC(C)(O)[C@H](F)CNC(=O)c1cnc(-c2ccc3cc(C#N)cnn23)cc1NC1CCCC(S(C)(=O)=O)C1 (single isomer, unassigned) [Example 517] | – | – | < 1 | – | 484 |
| CNC(=O)c1ncc(Nc2cc(-c3ccc4cc(C#N)cnn34)ncc2C(=O)NC[C@@H](F)C(C)(C)O)cn1 [Example 674, (R)-5-((2-(3-cyano-pyrrolo[1,2-b]pyridazin-7-yl)-5-((2-fluoro-3-hydroxy-3-methylbutyl)carbamoyl)pyridin-4-yl)amino)-N-methyl-pyrimidine-2-carboxamide] | 67 | – | < 1 | – | – |

Reference: patent US10336762B2 (priority 2017, dated 2019)
